Legend:
BaF3(WT) = BaF3(WT) (Homo sapiens, UniProt P00519); experiment: WST (CCK-8) anti-proliferative assay, BaF3 WT; conditions: read-out: BaF3(WT); BaF3 WT cells, 72 h treatment, CCK-8 readout OD 450 nm
BaF3 (T315I mutant) = BaF3 (T315I mutant) (Homo sapiens, UniProt P00519, T315I, cells depend on it); experiment: WST (CCK-8) anti-proliferative assay, BaF3 T315I mutant; conditions: read-out: BaF3 (T315I mutant), 72 h treatment, CCK-8 readout OD 450 nm

Structure (SMILES)	GI50 (BaF3(WT)) [nM]	GI50 (BaF3 (T315I mutant)) [nM]
CC(C)N1c2c(-c3ccn[nH]3)cc(C(=O)Nc3ccc(OC(F)(F)Cl)cc3)cc2C2CCN(CC(F)(F)F)CC21 (stereo not shown) [Compound 41, N-(4-(chlorodifluoromethoxy)phenyl)-9-isopropyl-8-(1H-pyrazol-5-yl)-2-(2,2,2-trifluoroethyl)-2,3,4,4a,9,9a-hexahydro-1H-pyrido[3,4-b]indole-6-carboxamide]	120	850
CC(=O)N[C@H]1CC[C@@H]2c3cc(C(=O)Nc4ccc(OC(F)(F)Cl)cc4)cc(-c4cccnc4)c3N(C(C)C)[C@H]12 [Compound 26-B, (3S,3aS,8bR)-3-acetamido-N-(4-(chlorodifluoromethoxy)phenyl)-4-isopropyl-5-(pyridin-3-yl)-1,2,3,3a,4,8b-hexahydrocyclopenta[b]indole-7-carboxamide]	186	956
CC(C)N1c2c(-c3ccn[nH]3)cc(C(=O)Nc3ccc(OC(F)(F)Cl)cc3)cc2C2CCC(N3CCNC3=O)C21 (stereo not shown) [Compound 38, N-(4-(chlorodifluoromethoxy)phenyl)-4-isopropyl-3-(2-oxoimidazolidin-1-yl)-5-(1H-pyrazol-5-yl)-1,2,3,3a,4,8b-hexahydrocyclopenta[b]indole-7-carboxamide]	18	77
CC(C)N1c2c(-c3ccn[nH]3)cc(C(=O)Nc3ccc(OC(F)(F)Cl)cc3)cc2C2CC(O)C(O)C21 (stereo not shown) [Compound 3, N-(4-(chlorodifluoromethoxy)phenyl)-2,3-dihydroxy-4-isopropyl-5-(1H-pyrazol-5-yl)-1,2,3,3a,4,8b-hexahydrocyclopenta[b]indole-7-carboxamide]	36	177
CC(C)N1c2c(-c3ccn[nH]3)cc(C(=O)Nc3ccc(OC(F)(F)Cl)cc3)cc2C2CCC(NC(=O)CCC(=O)O)C21 (stereo not shown) [Compound 39, 4-((7-((4-(chlorodifluoromethoxy)phenyl)carbamoyl)-4-isopropyl-5-(1H-pyrazol-5-yl)-1,2,3,3a,4,8b-hexahydrocyclopenta[b]indol-3-yl)amino)-4-oxobutanoic acid]	2760	5710
CC(=O)N[C@H]1CC[C@@H]2c3cc(C(=O)Nc4ccc(OC(F)(F)Cl)cc4)cc(-c4cncnc4)c3N(C(C)C)[C@H]12 [Compound 20-B, (3S,3aS,8bR)-3-acetamido-N-(4-(chlorodifluoromethoxy)phenyl)-4-isopropyl-5-(pyrimidin-5-yl)-1,2,3,3a,4,8b-hexahydrocyclopenta[b]indole-7-carboxamide]	365	1380
CC(C)N1c2c(-c3ccn[nH]3)cc(C(=O)Nc3ccc(OC(F)(F)Cl)cc3)cc2C2CCC(NS(C)(=O)=O)C21 (stereo not shown) [Compound 6]	67	154
CC(=O)N[C@@H]1CC[C@H]2c3cc(C(=O)Nc4ccc(OC(F)(F)Cl)cc4)cc(-c4cccnn4)c3N(CC(C)(C)C)[C@@H]12 [Compound 59-A]	65	122
CC(C)N1c2c(-c3ccn[nH]3)cc(C(=O)Nc3ccc(OC(F)(F)Cl)cc3)cc2C2CCC(NS(=O)(=O)c3nnc[nH]3)C21 (stereo not shown) [Compound 17]	1060	1670
CC(=O)N[C@@H]1CC[C@H]2c3cc(C(=O)Nc4ccc(OC(F)(F)Cl)cc4)cc(-c4cncnc4)c3N(C(C)C)[C@@H]12 [Compound 20-A, (3R,3aR,8bS)-3-acetamido-N-(4-(chlorodifluoromethoxy)phenyl)-4-isopropyl-5-(pyrimidin-5-yl)-1,2,3,3a,4,8b-hexahydrocyclopenta[b]indole-7-carboxamide]	42	29
CC(=O)N1CCC2c3cc(C(=O)Nc4ccc(OC(F)(F)Cl)cc4)cc(-c4ccn[nH]4)c3N(C(C)C)C2C1 (stereo not shown) [Compound 42, 2-acetyl-N-(4-(chlorodifluoromethoxy)phenyl)-9-isopropyl-8-(1H-pyrazol-5-yl)-2,3,4,4a,9,9a-hexahydro-1H-pyrido[3,4-b]indole-6-carboxamide]	38	115
CC(=O)NC1CCC2c3cc(C(=O)Nc4ccc(OC(F)(F)Cl)cc4)cc(-c4ccncc4)c3N(C(C)C)C12 (stereo not shown) [Compound 21]	27	176
CNC(=O)NC1CCC2c3cc(C(=O)Nc4ccc(OC(F)(F)Cl)cc4)cc(-c4ccn[nH]4)c3N(C(C)C)C12 (stereo not shown) [Compound 11]	53	64
CC(C)N1c2c(-c3ccn[nH]3)cc(C(=O)Nc3ccc(OC(F)(F)Cl)cc3)cc2C2CCC(NC(=O)C3CCN(C)CC3)C21 (stereo not shown) [Compound 32]	491	2110
CC(C)N1c2c(-c3ccn[nH]3)cc(C(=O)Nc3ccc(OC(F)(F)Cl)cc3)cc2C2CCC(NS(=O)(=O)N3CCN(C)CC3)C21 (stereo not shown) [Compound 15]	35	346

Stronger by GI50 (BaF3(WT)), values ahead:

GI50 (BaF3(WT)) [nM]	GI50 (BaF3 (T315I mutant)) [nM]	Structure (SMILES)
14	109	CC(C)N1c2c(-c3ccn[nH]3)cc(C(=O)Nc3ccc(OC(F)(F)Cl)cc3)cc2C2CCC(NC(=O)Nc3cnccn3)C21 (stereo not shown) [Compound 33, N-(4-(chlorodifluoromethoxy)phenyl)-4-isopropyl-3-(3-(pyrazin-2-yl)ureido)-5-(1H-pyrazol-5-yl)-1,2,3,3a,4,8b-hexahydrocyclopenta[b]indole-7-carboxamide]
12	122	CC(C)N1c2c(-c3ccn[nH]3)cc(C(=O)Nc3ccc(OC(F)(F)Cl)cc3)cc2C2CCC(NS(=O)(=O)N3CCOCC3)C21 (stereo not shown) [Compound 13]
2	14	CC(=O)N[C@@H]1CC[C@H]2c3cc(C(=O)Nc4ccc(OC(F)(F)Cl)cc4)cc(-c4cc(F)cc(C#N)c4)c3N(C(C)C)[C@@H]12 [Compound 48-A]
12	116	COc1cncc(-c2cc(C(=O)Nc3ccc(OC(F)(F)Cl)cc3)cc3c2N(C(C)C)[C@H]2[C@H](NC(C)=O)CC[C@@H]32)c1 [Compound 51-A]
12	252	CC(C)N1c2c(-c3ccn[nH]3)cc(C(=O)Nc3ccc(OC(F)(F)Cl)cc3)cc2C2CCC(NS(=O)(=O)N3CCCCC3)C21 (stereo not shown) [Compound 16]
3	21	CC(=O)NC1CCC2c3cc(C(=O)Nc4ccc(OC(F)(F)Cl)cc4)cc(-c4ccn[nH]4)c3N(CC(C)(C)C)C12 (stereo not shown) [Compound 22]
17	206	COCC(=O)NC1CCC2c3cc(C(=O)Nc4ccc(OC(F)(F)Cl)cc4)cc(-c4ccn[nH]4)c3N(C(C)C)C12 (stereo not shown) [Compound 9]
2	8	CC(=O)N[C@@H]1CC[C@H]2c3cc(C(=O)Nc4ccc(OC(F)(F)Cl)cc4)cc(-c4cncc(F)c4)c3N(C(C)C)[C@@H]12 [Compound 46-A]
17	192	CC(C)N1c2c(-c3ccn[nH]3)cc(C(=O)Nc3ccc(OC(F)(F)Cl)cc3)cc2C2CCC(O)C21 (stereo not shown) [Compound 1, N-(4-(chlorodifluoromethoxy)phenyl)-3-hydroxy-4-isopropyl-5-(1H-pyrazol-5-yl)-1,2,3,3a,4,8b-hexahydrocyclopenta[b]indole-7-carboxamide]
12	55	CC(C)N1c2c(-c3ccn[nH]3)cc(C(=O)Nc3ccc(OC(F)(F)Cl)cc3)cc2C2CCC(N3CCCC3=O)C21 (stereo not shown) [Compound 35, N-(4-(chlorodifluoromethoxy)phenyl)-4-isopropyl-3-(2-oxopyrrolidin-1-yl)-5-(1H-pyrazol-5-yl)-1,2,3,3a,4,8b-hexahydrocyclopenta[b]indole-7-carboxamide]
17	411	CC(C)N1c2c(-c3ccn[nH]3)cc(C(=O)Nc3ccc(OC(F)(F)Cl)cc3)cc2C2CCC(Nc3cnccn3)C21 (stereo not shown) [Compound 34, N-(4-(chlorodifluoromethoxy)phenyl)-4-isopropyl-3-(pyrazin-2-ylamino)-5-(1H-pyrazol-5-yl)-1,2,3,3a,4,8b-hexahydrocyclopenta[b]indole-7-carboxamide]
10	216	CC(C)N1c2c(-c3ccn[nH]3)cc(C(=O)Nc3ccc(OC(F)(F)Cl)cc3)cc2C2CCC(NS(=O)(=O)N(C)C)C21 (stereo not shown) [Compound 12]
6	59	CC(=O)N[C@@H]1CC[C@H]2c3cc(C(=O)Nc4ccc(OC(F)(F)Cl)cc4)cc(-c4cc(F)cnc4C#N)c3N(C(C)C)[C@@H]12 [Compound 67-A]
3	47	CC(=O)N[C@@H]1CC[C@H]2c3cc(C(=O)Nc4ccc(OC(F)(F)Cl)cc4)cc(-c4cncc(Cl)c4)c3N(C(C)C)[C@@H]12 [Compound 52-A]
6	41	CC(=O)N[C@@H]1CC[C@H]2c3cc(C(=O)Nc4ccc(OC(F)(F)Cl)cc4)cc(-c4cccnc4)c3N(C(C)C)[C@@H]12 [Compound 26-A, (3R,3aR,8bS)-3-acetamido-N-(4-(chlorodifluoromethoxy)phenyl)-4-isopropyl-5-(pyridin-3-yl)-1,2,3,3a,4,8b-hexahydrocyclopenta[b]indole-7-carboxamide]
12	65	CC(=O)NC1CCC2c3cc(C(=O)Nc4ccc(OC(F)(F)Cl)cc4)cc(-c4cccnc4)c3N(C(C)C)C12 (stereo not shown) [Compound 26]
3	21	CC(=O)N[C@@H]1CC[C@H]2c3cc(C(=O)Nc4ccc(OC(F)(F)Cl)cc4)cc(-c4ccn[nH]4)c3N(CC(C)(C)C)[C@@H]12 [Compound 22-A, (3R,3aR,8bS)-3-acetamido-N-(4-(chlorodifluoromethoxy)phenyl)-4-neopentyl-5-(1H-pyrazol-5-yl)-1,2,3,3a,4,8b-hexahydrocyclopenta[b]indole-7-carboxamide]

— patent US11987575B2, “Tricyclic compounds as BCR-ABL inhibitors” (ASCENTAGE PHARMA (SUZHOU) CO., LTD., priority 2019, dated 2024)
